For two molecules, IC50 results are on record in BindingDB's records for patent US11957687 (Regeneron Pharmaceuticals, 2024).

In this assay the target is T1, 17-beta-hydroxysteroid dehydrogenase 13 (Homo sapiens, UniProt Q7Z5P4).
T1 sequence (Q7Z5P4 whole entry): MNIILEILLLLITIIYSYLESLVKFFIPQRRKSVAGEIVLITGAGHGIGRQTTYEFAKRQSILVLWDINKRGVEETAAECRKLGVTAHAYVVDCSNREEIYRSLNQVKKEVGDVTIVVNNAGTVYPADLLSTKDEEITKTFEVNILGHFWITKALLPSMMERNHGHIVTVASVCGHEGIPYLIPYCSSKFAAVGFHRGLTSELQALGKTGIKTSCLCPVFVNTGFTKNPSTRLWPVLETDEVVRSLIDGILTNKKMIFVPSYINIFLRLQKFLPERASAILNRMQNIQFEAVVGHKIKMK
The experiment in a line: HSD17B13 Enzymatic Blocking Assay (50nM). On the procedure: Compounds of the disclosure were screened for their ability to block HSD17B13 function using an enzymatic blocking assay. HSD17B13 activity was quantified using a NADH Glo luminescence assay (Promega, #Cat. No. G9062) to measure the formation of NADH from the oxidation of LTB4, a known HSD17B13 substrate. Compounds were over a 10-point dose curve using an Echo-555 liquid handling dispenser. HSD17B13 (SEQ ID NO: 1, expressed in E. coli) was added at […] a final concentration of 50 nM, depending on the assay run, in a buffer containing 0.2M Tris-HCl pH 7.5 containing 0.01% Triton-X into a low volume white 384-well assay plate. Compounds were incubated with the enzyme for 30 minutes at room temperature. The assay reaction was then initiated by addition of 10 μM LTB4 substrate (Cayman chemicals, Cat. No. 20110) and 500 μM NAD, and the reaction mixture was incubated for 1 or 2 hours at room temperature depending on the assay run. DMSO at a concentration of 0.5% was used as a negative control, and a ‘no substrate’ control was used as a positive control (100% inhibition) in the assay. […] Generation of NADH was detected in the luminescence mode on the Envision Perkin Elmer plate reader. The IC50 values were determined using Dotmatics analysis software.

Turning to `CCCC1Cc2ccc(C)cc2C1NC(=O)c1ccc(C(F)(F)F)[nH]c1=O` (configuration not stated) [US11957687, Compound 291], the IC50 (as a rule, the point on the concentration scale where inhibition reaches its midpoint) stood at 80 nM. The molecule `CC(C)(C)OC(=O)NCCc1cccc2c1CCCC2NC(=O)c1ccc(C(F)(F)F)[nH]c1=O` (configuration not stated) [US11957687, Compound 301] showed a 50% inhibitory concentration (IC50) of 3450 nM.
